Source: US9452225B2, “GLP-1 prodrugs” (Novo Nordisk A/S, priority 2012, dated 2016)
Like-named read-outs stand apart in the source and are kept apart here. Numbered stars: 1 amine (or outer) side, 2 acyl side, 3 side chain; on linkers, the order of the positions; unused ones are H or OH. Side chains are listed from the residue outwards. Peptide text beside a SMILES is read from it. * marks the point of attachment. Decanoyl(10-(4-HOOC-PhO)) = O=C(O)c1ccc(OCCCCCCCCCC(=O)*)cc1; Lactoyl(3-(imidazol-4-yl)) = O=C([C@@H](O)Cc1c[nH]cn1)*; γGlu = O=C(O)[C@H](CCC(=O)[*:2])N[*:1]; AEEA = NCCOCCOCC(=O)O

How the values were obtained:
[1] = molecular target: T1, human GLP-1 receptor (Homo sapiens, UniProt P43220); test: In vitro potency, AlphaScreen cAMP assay on membranes; type: biochemical; details: cAMP formation, membranes of BHK467-12A cells
T1 construct: expressed in transfected cells; host or cells: BHK cells, clone FCW467-12A (parent line BHKTS13), membranes
Description: The purpose of this example is to test the activity, or potency, in vitro of, for example, the GLP-1 parent drugs of the prodrugs of the invention.
Purified plasma membranes from a stable transfected cell line, BHK467-12A (tk-ts13), expressing the human GLP-1 receptor were stimulated with the GLP-1 drug in question, and the potency of cAMP production was measured using the AlphaScreen™ cAMP Assay Kit from Perkin Elmer Life Sciences. The basic principle of The AlphaScreen Assay is a competition between endogenous cAMP and exogenously added biotin-cAMP. The capture of cAMP is achieved by using a specific antibody conjugated to acceptor beads.
A stable transfected cell line and a high expressing clone were selected for screening. The cells were grown at 5% CO2 in DMEM, 10% FCS, 1% Pen/Strep (Penicillin/Streptomycin) and preferably 0.5 (alternatively 1.0 mg/ml) of the selection marker G418.
Cells at approximate 80% confluence were washed twice with PBS and harvested with Versene (aqueous solution of the tetrasodium salt of ethylenediaminetetraacetic acid), centrifuged 5 min at 1000 rpm and the supernatant removed. The additional steps were all made on ice. The cell pellet was homogenised by the Ultrathurax for 20-30 s in 10 ml of Buffer 1 (20 mM Na-HEPES, 10 mM EDTA, pH=7.4), centrifuged 15 min at 20,000 rpm and the pellet resuspended in 10 ml of Buffer 2 (20 mM Na-HEPES, 0.1 mM EDTA, pH=7.4). The suspension was homogenised for 20-30 s and centrifuged 15 min at 20,000 rpm. Suspension in Buffer 2, homogenisation and centrifugation was repeated once and the membranes were resuspended in Buffer 2. The protein concentration was determined and the membranes stored at −80° C. until use.
The assay was performed in flat-bottom 96-well plates (Costar cat. no: 3693). The final volume per well was 50 μl.
AlphaScreen cAMP Assay Kit from Perkin Elmer Life Sciences (cat. No: 6760625M); containing Anti-cAMP Acceptor beads (10 U/μl), Streptavidin Donor beads (10 U/μl) and Biotinylated-cAMP (133 U/μl). […]

[2] = molecular target: T2, Dipeptidyl peptidase-4 (DPP-IV) (Homo sapiens, UniProt P27487); test: Resistance to DPP-IV degradation; type: in vitro ADME; details: for half-life: recombinant dipeptidyl peptidase-4 (DPP-IV), pH 7.4, incubation with DPP-IV, 37° C.; for In (concentration) of parent GLP-1 peptide drug: DPP-IV incubation 37° C.
T2 construct: purchased R&D Systems 1180-SE
Description: The purpose of this experiment is to determine the degradation by Dipeptidyl peptidase-4 (DPP-IV) of the parent drugs of the prodrugs of the invention.
The stability of the parent GLP-1 drug of Example B2.1 was tested as described below.
HEPES Buffer (50 mM HEPES Buffer with 0.005% Tween20, pH 7.4)
10 ml 1 M HEPES+100 μl 10% Tween20 adjusted to pH 7.4 and diluted with MilliQ water ad 200 mL
1.0 mM in HEPES buffer 0.1% BSA (Sigma cat. no. A9418)
1.0 mM in hepes buffer pH 7.4
DPP-IV was Recombinant Dipeptidyl Peptidase, R&D Systems, cat no. 1180-SE
50 μl of DPP-IV (0.2 mg/mL), 25 mM MES, 0.7 M NaCl, pH 5.0
Add 200 μl 25 mM TRIS pH 8.0 to Stock vial (DPP-IV concentration 40 μg/mL). Just before use: 210 μl (40 μg/ml) is added 210 μl 50 mM HEPES (DPP-IV concentration 20 μg/mL)
Minimum 30 min, 37° C. with 600 μl 0.1% OVAlbumin. Then left overnight at 4° C. and washed times with 50 mM HEPES.
Minimum 150 min with HEPES buffer at 37° C.
The reactions were terminated by moving 25 μl of the sample into 150 μl cooled 1% TFA in EtOH. Samples were collected in a v-shaped 96-well plate (polypropylene, Costar 3957), (Cat no. cci-3957)). Samples were sealed and kept on ice until analyses.
Samples were diluted 5 times in 50% acetonitrile (1% formic acid) (20 μL+80 μL) and analysed with UPLC-MS.
The amounts of parent GLP-1 drug and DPP-IV cleaved drug were measured from the total ion counts and T½ was determined from a linear fit to the curve of ln (% parent GLP-1 drug) (Y) as a function of time (t), as follows: Y(t)=÷αt+k Math 3 T½=ln 2/α Math 4 T½ (÷BSA): 3466 min T½ (+0.001% BSA): 2311 min

T2 sequence (P27487 29-766 limits assumed): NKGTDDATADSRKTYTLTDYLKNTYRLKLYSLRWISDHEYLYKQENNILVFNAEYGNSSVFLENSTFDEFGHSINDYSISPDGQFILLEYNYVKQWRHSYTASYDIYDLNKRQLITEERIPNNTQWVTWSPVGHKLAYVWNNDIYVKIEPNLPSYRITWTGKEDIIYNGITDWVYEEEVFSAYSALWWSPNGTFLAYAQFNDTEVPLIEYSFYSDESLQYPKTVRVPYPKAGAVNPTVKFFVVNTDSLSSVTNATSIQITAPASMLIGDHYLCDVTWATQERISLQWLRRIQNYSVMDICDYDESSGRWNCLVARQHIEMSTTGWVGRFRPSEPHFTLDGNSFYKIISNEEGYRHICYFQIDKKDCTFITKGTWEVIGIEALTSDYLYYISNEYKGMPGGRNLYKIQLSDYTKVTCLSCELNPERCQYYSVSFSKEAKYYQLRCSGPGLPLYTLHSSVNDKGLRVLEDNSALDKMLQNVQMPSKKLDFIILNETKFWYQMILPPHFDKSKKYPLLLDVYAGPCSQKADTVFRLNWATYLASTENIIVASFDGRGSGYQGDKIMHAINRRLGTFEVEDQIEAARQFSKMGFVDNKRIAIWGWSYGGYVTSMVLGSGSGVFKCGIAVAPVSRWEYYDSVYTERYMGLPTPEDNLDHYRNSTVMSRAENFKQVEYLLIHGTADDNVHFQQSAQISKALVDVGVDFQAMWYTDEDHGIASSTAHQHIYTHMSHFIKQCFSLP
T1 sequence (P43220 24-463): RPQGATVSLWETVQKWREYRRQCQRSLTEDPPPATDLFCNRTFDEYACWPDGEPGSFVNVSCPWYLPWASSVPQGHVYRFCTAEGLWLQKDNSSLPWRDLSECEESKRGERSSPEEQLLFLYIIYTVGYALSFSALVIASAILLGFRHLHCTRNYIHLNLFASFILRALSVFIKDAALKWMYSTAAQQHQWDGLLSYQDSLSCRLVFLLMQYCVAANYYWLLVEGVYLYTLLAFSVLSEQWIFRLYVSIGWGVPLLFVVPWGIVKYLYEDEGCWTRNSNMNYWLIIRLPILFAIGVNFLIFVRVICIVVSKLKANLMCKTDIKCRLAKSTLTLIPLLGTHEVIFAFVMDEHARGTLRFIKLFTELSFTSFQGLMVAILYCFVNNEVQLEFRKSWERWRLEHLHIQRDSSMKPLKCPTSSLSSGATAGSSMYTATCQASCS

SMILES | EC50 [1] | half-life ([2]; +0.001% BSA, read-out: T½ (+0.001% BSA)) | half-life ([2]; without BSA, read-out: T½ (÷BSA)) | In (concentration) of parent GLP-1 peptide drug ([2]; with BSA, time 1.0 minutes) | In (concentration) of parent GLP-1 peptide drug ([2]; with BSA, time 32 minutes) | In (concentration) of parent GLP-1 peptide drug ([2]; with BSA, time 60 minutes) | In (concentration) of parent GLP-1 peptide drug ([2]; with BSA, time 120 minutes) | In (concentration) of parent GLP-1 peptide drug ([2]; with BSA, time 183 minutes) | In (concentration) of parent GLP-1 peptide drug ([2]; with BSA, time 1440 minutes) | In (concentration) of parent GLP-1 peptide drug ([2]; without BSA, time 1.0 minutes) | In (concentration) of parent GLP-1 peptide drug ([2]; without BSA, time 32 minutes) | In (concentration) of parent GLP-1 peptide drug ([2]; without BSA, time 60 minutes) | In (concentration) of parent GLP-1 peptide drug ([2]; without BSA, time 120 minutes) | In (concentration) of parent GLP-1 peptide drug ([2]; without BSA, time 183 minutes) | In (concentration) of parent GLP-1 peptide drug ([2]; without BSA, time 1440 minutes)
CC[C@H](C)[C@H](NC(=O)[C@H](Cc1ccccc1)NC(=O)[C@H](CCC(=O)O)NC(=O)[C@H](CCCCNC(=O)COCCOCCNC(=O)COCCOCCNC(=O)CC[C@H](NC(=O)CCCCCCCCCOc1ccc(C(=O)O)cc1)C(=O)O)NC(=O)[C@H](C)NC(=O)[C@H](C)NC(=O)[C@H](CCC(N)=O)NC(=O)[C@H](CCC(=O)O)NC(=O)[C@H](CCC(=O)O)NC(=O)[C@H](CC(C)C)NC(=O)[C@H](Cc1ccc(O)cc1)NC(=O)[C@H](CCCCNC(=O)COCCOCCNC(=O)COCCOCCNC(=O)CC[C@H](NC(=O)CCCCCCCCCOc1ccc(C(=O)O)cc1)C(=O)O)NC(=O)[C@H](CO)NC(=O)[C@@H](NC(=O)[C@H](CC(=O)O)NC(=O)[C@H](CO)NC(=O)[C@@H](NC(=O)[C@H](Cc1ccccc1)NC(=O)[C@@H](NC(=O)CNC(=O)[C@H](CCC(=O)O)NC(=O)[C@H](C)NC(=O)[C@@H](O)Cc1c[nH]cn1)[C@@H](C)O)[C@@H](C)O)C(C)C)C(=O)N[C@@H](C)C(=O)N[C@@H](Cc1c[nH]c2ccccc12)C(=O)N[C@@H](CC(C)C)C(=O)N[C@H](C(=O)N[C@@H](CCC(N)=O)C(=O)NCC(=O)N[C@@H](CCCNC(=N)N)C(=O)NCC(=O)O)C(C)C [Example B2.3] ({Lactoyl(3-(imidazol-4-yl))}-AEGTFTSDVSK([AEEA-AEEA-γGlu-Decanoyl(10-(4-HOOC-PhO))])YLEEQAAK([AEEA-AEEA-γGlu-Decanoyl(10-(4-HOOC-PhO))])EFIAWLVQGRG-OH; C-terminus assumed) | 1300 pM | – | – | – | – | – | – | – | – | – | – | – | – | – | –
CC[C@H](C)[C@H](NC(=O)[C@H](Cc1ccccc1)NC(=O)[C@H](CCC(=O)O)NC(=O)[C@H](CCCNC(=N)N)NC(=O)[C@@H](NC(=O)[C@H](C)NC(=O)[C@H](CCC(N)=O)NC(=O)[C@H](CCC(=O)O)NC(=O)[C@H](CCC(=O)O)NC(=O)[C@H](CC(C)C)NC(=O)[C@H](Cc1ccc(O)cc1)NC(=O)[C@H](CCCCNC(=O)COCCOCCNC(=O)COCCOCCNC(=O)CC[C@H](NC(=O)CCCCCCCCCOc1ccc(C(=O)O)cc1)C(=O)O)NC(=O)[C@H](CO)NC(=O)[C@@H](NC(=O)[C@H](CC(=O)O)NC(=O)[C@H](CO)NC(=O)[C@@H](NC(=O)[C@H](Cc1ccccc1)NC(=O)[C@@H](NC(=O)CNC(=O)[C@H](CCC(=O)O)NC(=O)[C@H](C)NC(=O)[C@@H](O)Cc1c[nH]cn1)[C@@H](C)O)[C@@H](C)O)C(C)C)C(C)C)C(=O)N[C@@H](C)C(=O)N[C@@H](CCCCNC(=O)COCCOCCNC(=O)COCCOCCNC(=O)CC[C@H](NC(=O)CCCCCCCCCOc1ccc(C(=O)O)cc1)C(=O)O)C(=O)N[C@@H](CC(C)C)C(=O)N[C@H](C(=O)N[C@@H](CCCNC(=N)N)C(=O)NCC(=O)N[C@@H](CCCNC(=N)N)C(=O)NCC(=O)O)C(C)C [Example B2.1] ({Lactoyl(3-(imidazol-4-yl))}-AEGTFTSDVSK([AEEA-AEEA-γGlu-Decanoyl(10-(4-HOOC-PhO))])YLEEQAVREFIAK([AEEA-AEEA-γGlu-Decanoyl(10-(4-HOOC-PhO))])LVRGRG-OH) | 100 pM | 38.5 h | 57.8 h | 4.61 | 4.61 | 4.58 | 4.40 | 4.58 | 4.47 | 4.61 | 4.59 | 4.63 | 4.50 | 4.64 | 4.45
